This data set concerns individuals with major depression who are partial responders (based on HAM-D scores) to selective serotonin reuptake inhibitors. Briefly: 8-week clinical trial of mecamylamine plus SSRI antidepressant versus placebo plus antidepressant. It counts as in vivo, human. How it is done:
The treatment of depressive symptoms in individuals with major depression who are partial responders (based on HAM-D scores) to selective serotonin reuptake inhibitors (e.g., fluoxetine, sertraline, citalopram, paroxetine, fluvoxamine) was assessed.
Subjects (n=13) were randomly assigned to one of two groups, designated mecamylamine or MEC and Placebo, respectively, for an 8-week clinical trial. Individuals in the MEC group received mecamylamine plus an antidepressant and those in the placebo group received placebo plus an antidepressant Eleven subjects (n=6 randomized to MEC, n=5 to placebo) have completed this 8-week clinical trial and results are presented for those individuals. Two subjects are currently enrolled in the protocol. No clinical or demographic differences have been found between subjects randomized to MEC versus Placebo (Table). […] These preliminary results support our primary hypothesis that central nAChR antagonism augments SSRI-treated refractory major depression.

We go through one compound from patent US20080058345A1, “Combination Therapy with Mecamylamine for the Treatment of Mood Disorders” (priority 2004, published 2008).

For the compound `CNC1(C)C2CCC(C2)C1(C)C` (stereo not shown) [MEC, Bicyclo(2.2.1)heptan-2-amine, N,2,3,3-tetramethyl-], where the note is “8-week trial, MEC plus antidepressant versus placebo plus antidepressant”, the “difference between MEC and Placebo groups on any adverse events” value is listed as “no significant differences”. Further, the “adverse event: report of decreased libido (subjects reporting)” value (8-week trial, MEC plus antidepressant, placebo 1/5, p=0.06) is recorded as 4/5. Besides, the “adverse event: constipation (subjects reporting)” value (8-week trial, MEC plus antidepressant, placebo 3/5, p=0.11) was 5/6. Besides, the “subjects classified as responders, as assessed by a 50% reduction in HAM-D scores” value (end of 8-week trial, MEC plus antidepressant, n=6 completers, placebo 0/5, p=0.02) is recorded as “Four out of six”.
